Key:
DgoR (BW WT DgoR) [1] = target: T1, DgoR (BW WT DgoR) (Escherichia coli, UniProt P31460, R71C); test: label-free microscale thermophoresis; format: binding
T1 construct: full length (229 aa), C-terminal 6XHis tag, expressed from Ptrc in pRC10 in E. coli BL21(DE3), Co-NTA purified; dimer
T1 sequence (P31460 1-229 R71C): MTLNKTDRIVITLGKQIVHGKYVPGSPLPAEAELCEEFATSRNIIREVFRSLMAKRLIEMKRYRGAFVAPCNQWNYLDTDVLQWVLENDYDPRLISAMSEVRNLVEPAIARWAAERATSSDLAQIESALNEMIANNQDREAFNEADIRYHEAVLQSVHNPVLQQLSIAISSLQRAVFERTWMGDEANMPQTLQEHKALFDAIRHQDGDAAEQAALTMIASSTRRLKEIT

DgoR (BW WT DgoR) [2] = target: T2, DgoR (BW WT DgoR) (Escherichia coli, UniProt P31460); test: label-free microscale thermophoresis; format: binding
T2 construct: full length (229 aa), C-terminal 6XHis tag, expressed from Ptrc in pRC10 in E. coli BL21(DE3), Co-NTA purified; dimer
T2 sequence (P31460 1-229): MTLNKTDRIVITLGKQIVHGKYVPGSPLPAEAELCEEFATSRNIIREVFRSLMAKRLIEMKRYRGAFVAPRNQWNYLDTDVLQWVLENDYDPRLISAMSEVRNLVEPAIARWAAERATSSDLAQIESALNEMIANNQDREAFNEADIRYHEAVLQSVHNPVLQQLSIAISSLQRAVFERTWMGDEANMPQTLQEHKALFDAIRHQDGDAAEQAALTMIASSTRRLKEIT

DgoR (BW WT DgoR) [3] = target: T3, DgoR (BW WT DgoR) (Escherichia coli, UniProt P31460, A152E); test: label-free microscale thermophoresis; format: binding
T3 construct: full length (229 aa), C-terminal 6XHis tag, expressed from Ptrc in pRC10 in E. coli BL21(DE3), Co-NTA purified; dimer
T3 sequence (P31460 1-229 A152E): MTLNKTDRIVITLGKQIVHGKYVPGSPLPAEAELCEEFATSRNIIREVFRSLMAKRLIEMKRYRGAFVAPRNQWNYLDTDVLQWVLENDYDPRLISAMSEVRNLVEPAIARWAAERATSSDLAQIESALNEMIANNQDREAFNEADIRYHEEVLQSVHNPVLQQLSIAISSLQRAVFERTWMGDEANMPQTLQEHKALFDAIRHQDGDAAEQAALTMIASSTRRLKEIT

DgoR WT = target: T4, DgoR WT (Escherichia coli BW, UniProt P31460 1-229); test: EMSA; no effector; apparent Kd, Hill fit; 10 nM DNA, 50 mM Tris pH 8.5, 10 mM MgCl2, 265 mM NaCl, 1 mM PMSF, 12% glycerol, 2 mM DTT, 1 ug herring sperm DNA per 20 uL, 27 C 30 min; effector pre-incubation 37 C 20 min; 8% native PAGE 0.5x TBE; details: protein: recombinant; tags: C-terminal 6xHis; chain copies: 2; label: 5'-Cy5 on strand 1; blunt
T4 sequence: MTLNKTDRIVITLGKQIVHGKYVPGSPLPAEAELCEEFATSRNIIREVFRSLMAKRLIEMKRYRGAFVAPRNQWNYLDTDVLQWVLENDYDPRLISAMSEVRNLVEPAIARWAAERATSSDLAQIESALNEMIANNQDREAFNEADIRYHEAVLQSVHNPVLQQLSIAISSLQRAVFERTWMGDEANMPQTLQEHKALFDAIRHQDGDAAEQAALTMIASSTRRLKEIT

O=C(O)[C@H](O)[C@@H](O)[C@@H](O)[C@H](O)CO [D-galactonate]
Kd (DgoR (BW WT DgoR) [1]): 32.9 ± 1.2 µM | Kd (DgoR (BW WT DgoR) [2]): 10.3 ± 0.3 µM | Kd (DgoR (BW WT DgoR) [3]): 11.3 ± 0.2 µM

B1: dgo promoter probe GA149/GA150 (dsDNA)
DNA 1: GTGATCTAAATTGTAGTACAACAATATAAGTTTGTACTACATTACACGCACG
DNA 2: CGTGCGTGTAATGTAGTACAAACTTATATTGTTGTACTACAATTTAGATCAC
Kd (DgoR WT): 0.494 ± 0.019 µM

— paper PMC12288454, “Functional consequences of genetic variations in DgoR, a GntR/FadR family transcriptional repressor of D-galactonate metabolism in Escherichia coli” (Journal of Bacteriology, 2025)
